Measured values taken from patent publication US10597388B2, “Pyridazinone herbicides” (FMC CORPORATION, priority 2014, dated 2020).

Experiments:
Experiment in all cases: Test D controlled growth environment herbicide test, pre- and postemergence
Type in all cases: in vivo
[1] = tested on: barley, spring (spring barley, Hordeum vulgare)
Procedure, shortened: (§1)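 Pre-emergence: seeds sown in silt loam soil were sprayed with compound in a non-phytotoxic solvent mix containing surfactant. Post-emergence: plants at 2 to 18 cm (1- to 4-leaf stage) in peat moss/vermiculite medium got the same formulation. Visual 0–100 rating versus controls after 14 to 21 d.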

[2] = tested on: barley, winter (winter barley, Hordeum vulgare)
Procedure, shortened: as §1

[3] = tested on: bluegrass (annual bluegrass, Poa annua)
Procedure, shortened: as §1

[4] = tested on: bromegrass, downy (downy bromegrass, Bromus tectorum)
Procedure, shortened: as §1

[5] = tested on: canarygrass (Phalaris minor)
Procedure, shortened: as §1

[6] = tested on: chamomile (scentless chamomile, Matricaria inodora)
Procedure, shortened: as §1

[7] = tested on: foxtail, green (green foxtail, Setaria viridis)
Procedure, shortened: as §1

[8] = tested on: galium (catchweed bedstraw, Galium aparine)
Procedure, shortened: as §1

kochia (Kochia scoparia) = tested on: kochia (Kochia scoparia)
Procedure, shortened: as §1

[9] = tested on: lambsquarters (Chenopodium album)
Procedure, shortened: as §1

[10] = tested on: mustard, wild (wild mustard, Sinapis arvensis)
Procedure, shortened: as §1

[11] = tested on: oat, wild (wild oat, Avena fatua)
Procedure, shortened: as §1

[12] = tested on: speedwell (bird's-eye speedwell, Veronica persica)
Procedure, shortened: as §1

[13] = Postemergence, 31 g ai/ha, scale 0 to 100 (0 no effect, 100 complete control)
[14] = Postemergence, 125 g ai/ha, visual rating on scale 0 (no effect) to 100 (complete control), 14 to 21 d
[15] = Postemergence, 250 g ai/ha, scale 0 to 100 (0 no effect, 100 complete control)
[16] = Preemergence, 62 g ai/ha, scale 0 to 100 (0 no effect, 100 complete control)
[17] = Preemergence, 125 g ai/ha, scale 0 to 100 (0 no effect, 100 complete control)
[18] = Preemergence, 250 g ai/ha, scale 0 to 100 (0 no effect, 100 complete control)
[19] = postemergence, 62 g ai/ha, scale 0 to 100, 0 no effect, 100 complete control

CC(=O)Oc1c(C)nn(C)c(=O)c1-c1ccc(F)c2ccccc12 [Compound 90]
50: Plant response rating (scale of 0 to 100), Canarygrass ([5]; Preemergence, 31 g ai/ha)
20: Plant response rating, Barley, Spring [1, 17] | Bromegrass, Downy plant response rating [4, 13] | Plant response rating, Bromegrass, Downy [4, 16]
100: Plant response rating, Chamomile [6, 15] | Plant response rating (scale of 0 to 100), Chamomile ([6]; Preemergence, 31 g ai/ha) | Plant response rating (scale of 0 to 100), Chamomile ([6]; Preemergence, 62 g ai/ha) | Plant response rating, Chamomile [6, 17] | Plant response rating, Chamomile [6, 18] | Plant response rating, Galium [8, 14] | Plant response rating, Galium [8, 15] | Plant response rating, Galium [8, 19] | Plant response rating, Kochia (kochia (Kochia scoparia); [14]) | Plant response rating, Kochia (kochia (Kochia scoparia); [15]) | Plant response rating, Kochia (kochia (Kochia scoparia); [19]) | Plant response rating, Lambsquarters [9, 14] | Plant response rating, Lambsquarters [9, 15] | Plant response rating, Lambsquarters [9, 18] | Plant response rating, Mustard, Wild [10, 14] | Plant response rating, Mustard, Wild [10, 15] | Plant response rating, Mustard, Wild [10, 17] | Plant response rating, Oat, Wild [11, 15] | Speedwell plant response rating [12, 13] | Plant response rating, Speedwell [12, 14] | Plant response rating, Speedwell [12, 15] | Plant response rating (scale of 0 to 100), Speedwell ([12]; Preemergence, 31 g ai/ha) | Plant response rating (scale of 0 to 100), Speedwell ([12]; Preemergence, 62 g ai/ha) | Plant response rating, Speedwell [12, 17] | Plant response rating, Speedwell [12, 18] | Plant response rating, Speedwell [12, 19]
35: Plant response rating, Barley, Spring [1, 14] | Plant response rating, Barley, Spring [1, 18] | Plant response rating, Barley, Winter [2, 15] | Plant response rating (scale of 0 to 100), Mustard, Wild ([10]; Preemergence, 31 g ai/ha)
55: Plant response rating, Bromegrass, Downy [4, 15] | Plant response rating, Bromegrass, Downy [4, 17] | Plant response rating, Foxtail, Green [7, 19]
0: Plant response rating (scale of 0 to 100), Barley, Spring ([1]; Preemergence, 31 g ai/ha) | Plant response rating, Barley, Spring [1, 16] | Barley, Winter plant response rating [2, 13] | Plant response rating (scale of 0 to 100), Barley, Winter ([2]; Preemergence, 31 g ai/ha) | Plant response rating, Barley, Winter [2, 16] | Plant response rating (scale of 0 to 100), Bluegrass ([3]; Preemergence, 31 g ai/ha)
75: Plant response rating, Canarygrass [5, 14] | Plant response rating, Canarygrass [5, 15] | Plant response rating (scale of 0 to 100), Canarygrass ([5]; Preemergence, 62 g ai/ha) | Plant response rating, Chamomile [6, 19] | Plant response rating, Foxtail, Green [7, 15] | Plant response rating (scale of 0 to 100), Galium ([8]; Preemergence, 31 g ai/ha) | Plant response rating (scale of 0 to 100), Galium ([8]; Preemergence, 62 g ai/ha) | Plant response rating (scale of 0 to 100), Kochia (kochia (Kochia scoparia); Preemergence, 31 g ai/ha) | Oat, Wild plant response rating [11, 13] | Plant response rating (scale of 0 to 100), Oat, Wild ([11]; Preemergence, 31 g ai/ha)
40: Plant response rating, Barley, Spring [1, 15] | Plant response rating, Bluegrass [3, 16] | Plant response rating, Bromegrass, Downy [4, 14]
65: Plant response rating, Bluegrass [3, 17] | Plant response rating, Bluegrass [3, 18] | Plant response rating (scale of 0 to 100), Kochia (kochia (Kochia scoparia); Preemergence, 62 g ai/ha)
10: Barley, Spring plant response rating [1, 13]
80: Plant response rating, Kochia (kochia (Kochia scoparia); [18]) | Mustard, Wild plant response rating [10, 13] | Plant response rating (scale of 0 to 100), Oat, Wild ([11]; Preemergence, 62 g ai/ha)
30: Plant response rating, Barley, Winter [2, 18] | Plant response rating, Bluegrass [3, 15] | Plant response rating, Bromegrass, Downy [4, 19]
5: Bluegrass plant response rating [3, 13]
45: Plant response rating, Canarygrass [5, 19] | Plant response rating (scale of 0 to 100), Foxtail, Green ([7]; Preemergence, 62 g ai/ha)
25: Plant response rating, Barley, Spring [1, 19] | Plant response rating, Barley, Winter [2, 14] | Plant response rating, Bluegrass [3, 14] | Canarygrass plant response rating [5, 13] | Foxtail, Green plant response rating [7, 13] | Plant response rating (scale of 0 to 100), Foxtail, Green ([7]; Preemergence, 31 g ai/ha)
70: Chamomile plant response rating [6, 13] | Plant response rating, Foxtail, Green [7, 14] | Plant response rating, Foxtail, Green [7, 17]
98: Plant response rating, Chamomile [6, 14] | Galium plant response rating [8, 13] | Plant response rating (scale of 0 to 100), Lambsquarters ([9]; Preemergence, 62 g ai/ha) | Plant response rating (scale of 0 to 100), Mustard, Wild ([10]; Preemergence, 62 g ai/ha) | Plant response rating, Oat, Wild [11, 14] | Plant response rating, Oat, Wild [11, 18]
95: Plant response rating, Bromegrass, Downy [4, 18] | Plant response rating, Canarygrass [5, 18] | Plant response rating, Foxtail, Green [7, 18] | Plant response rating, Galium [8, 18] | Plant response rating, Mustard, Wild [10, 19]
85: Plant response rating, Canarygrass [5, 17] | Plant response rating, Galium [8, 17] | Kochia plant response rating (kochia (Kochia scoparia); [13]) | Plant response rating, Lambsquarters [9, 17] | Plant response rating, Oat, Wild [11, 17]
90: Plant response rating, Kochia (kochia (Kochia scoparia); [17]) | Lambsquarters plant response rating [9, 13] | Plant response rating (scale of 0 to 100), Lambsquarters ([9]; Preemergence, 31 g ai/ha) | Plant response rating, Lambsquarters [9, 19] | Plant response rating, Mustard, Wild [10, 18] | Plant response rating, Oat, Wild [11, 19]
15: Plant response rating, Barley, Winter [2, 17] | Plant response rating, Barley, Winter [2, 19] | Plant response rating, Bluegrass [3, 19] | Plant response rating (scale of 0 to 100), Bromegrass, Downy ([4]; Preemergence, 31 g ai/ha)
